# Measured values as given in patent US20250195528A1, “DOSE REGIMEN OF VICASINABIN” (Hoffmann-La Roche Inc., priority 2022, published 2025).
# Where “and” joins values, the source holds several entries; their conditions need not be identical. Identical values can stand only once. Entries after “also recorded” stand apart in the source; their conditions may differ. Like-named read-outs stand apart in the source and are kept apart here.
# Key:
# [1] = target: human CB1 (Homo sapiens, UniProt P21554); assay: Human CB1 binding assay
# [2] = tested on: 131 targets along with 57 CNS- and abuse potential-specific targets; assay: In vitro pharmacology profile on target panels; settings: 30 μM
# Experimental: The in vitro pharmacology profile of RO6868847 was evaluated at concentration of 30 μM on panels including 131 targets along with 57 CNS- and abuse potential-specific targets.
# [3] = tested on: 78 additional receptors and ion channels; assay: Radioligand binding assays on additional receptors and ion channels
# [4] = target: T1, CB2 receptor on B-cells (Homo sapiens, UniProt P34972); assay: In vitro target engagement: CB2 surface expression on peripheral B cells in whole blood (flow cytometry); type: cell-based; settings: for Emax: read-out: Mean Emax ± SD (%)
# T1 construct: B cells show a low but robust surface expression of CB2; endogenous in cells; host or cells: B cells in human whole blood (healthy participants, diabetic patients)
# Excerpt: To monitor target engagement by RO6868847 in humans, a flow cytometry assay was developed utilizing an in-house monoclonal anti-human CB2 antibody in combination with established blood cell markers (CD45, CD14, CD3, and CD19) (1078220). […] As with most GPCR agonists, RO6868847 is expected to trigger CB2 receptor internalization upon CB2 activation, resulting in decreased surface detection. In order to establish this measure as a surrogate target engagement biomarker, freshly isolated whole blood samples (n=9) from healthy participants were incubated in duplicates in vitro for 1 hour at 37° C. with eight different increasing concentrations of RO6868847 and were subsequently subjected to the flow cytometry assay (1078220).
# The availability of this in vitro target engagement assay also enabled us to explore the target engagement—exposure response in blood samples obtained from patients with diabetic mellitus (Type 1 and Type 2) and healthy controls matched for age, gender and BMI (Table 6) (1097891). This population was selected as it is similar to the envisaged target patient population for the proof-of-concept Phase II trial, encompassing diabetic patients according to definition by the World Health Organization and/or the American Diabetes Association.
# [5] = tested on: LPS-induced G-CSF, IFNγ, IL1β and TNFα levels in whole blood; assay: In vitro LPS whole blood challenge assay; type: cell-based, human
# Experimental: In order to explore any putative anti-inflammatory pharmacodynamic effect mediated by the CB2 agonist RO6868847 in a potentially clinically relevant human sample, an ex vivo whole blood lipopolysacharid (LPS) challenge assay was performed. Sodium heparin whole blood samples from healthy participants (n=8) were incubated in vitro for 1 hour at 37° C. with eight increasing concentrations of RO6868847 (0-30 μM) and exposed to LPS (100 ng/ml). After 18 h at 37° C. supernatants were analyzed for alterations in a range of chemokines and cytokines using Luminex-bead based multiplex ELISAs.
# In addition, this in vitro LPS whole blood challenge assay was also used in samples from diabetic (Type I and Type II) and matched healthy participants (table 6). In order to explore whether the exposure (0-30 μM)-response relationship of RO6868847 and the respective alterations in cytokine levels may be changed by any chronic inflammatory conditions in diabetes (DM) and/or in elderly healthy participants (HP), who are anticipated to be the study population of the Phase II proof of concept Study.
# [6] = tested on: leukostasis in the eye; assay: Leukostasis in the eye, rodent diabetic and non-diabetic model; type: in vivo
# Experimental: Pharmacological studies were performed in vitro and in vivo to investigate the potency, selectivity and activity of RO6868847. Pharmacological effects were determined in vivo in two different diabetic animal models which include the streptozotocin (STZ)-induced rat Type 1 diabetes and genetic Type 2 diabetes mouse models as well as in two acute models with acute inflammatory stimulus (LPS-injections) or laser injury (CNV). Additional in vitro pharmacology studies were performed to explore the pharmacological effect of RO6868847 and the suitability of the assays as biomarkers of target engagement and pharmacodynamic effect (PD) in human whole blood obtained from either healthy volunteers or diabetic patients.
# The diversity of the tested models (including acute challenge versus disease-modifying models) and the absence of a recommended nonclinical DME/DR model with proven clinical translatability presents a challenge for the estimation of pharmacologically active exposure in humans.
# [7] = Solubility of drug substance; type: physicochemical
# Experimental: (§1) For Phase I, film-coated tablets for oral administration containing 0.05, 0.75, 10, or 100 mg of RO6868847 drug substance were developed for clinical use. Three placebo film-coated tablets were formulated to match the active film-coated tablets in size and in appearance: one size to match the active 0.05 and 0.75 mg film-coated tablets and one size each to match the active 10 and 100 mg film-coated tablets.
# [8] = Stability of drug substance; type: physicochemical
# Experimental: as §1
# [9] = Study BP40387 Part 3 (MAD) pharmacokinetics, once daily for 14 days;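 note: phase I trial BP40387 in healthy male and female volunteers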
# Experimental: Study BP40387 was a Phase I study that was conducted in healthy male and female participants, and included 5 parts. Part 1 (SAD) consisted of an adaptive, single-ascending-dose, investigator/participant-blind, randomized, placebo-controlled, parallel study to investigate the safety, tolerability, and pharmacokinetics of RO6868847. Part 2 (FE), was designed as an open-label, randomized, two-period crossover, single dose investigation of the effect of food on the pharmacokinetics of RO6868847. Part 3 (MAD), was an adaptive, multiple-ascending-dose, investigator/participant-blind, randomized, placebo-controlled, parallel study to investigate the safety, tolerability, and pharmacokinetics of RO6868847 administered once-daily for 14 days. Part 4 (DDI-CYP Induction), was a non-randomized, open-label, fixed-sequence, two-period study to explore RO6868847-mediated CYP induction at 300 mg administered once-daily for 14 days, using midazolam, repaglinide, and bupropion as probe substrates for CYP3A, CYP2C8, and CYP2B6, respectively. […] Overall, in Part 1 (SAD), a total of 33 healthy participants received single oral doses of RO6868847 ranging between 0.75 mg and 300 mg, and 12 participants received placebo under fasting conditions. In Part 2 (FE), 8 participants received a single oral dose of 100 mg RO6868847 once after an overnight fast of at least 10 hours and once within 30 minutes after starting a high-calorie, high-fat breakfast. In Part 3 (MAD), a total of 30 participants received multiple oral doses of 6 mg to 300 mg RO6868847 QD for 14 days, and 10 participants received placebo.
# [10] = diabetic patients and matched healthy participants
# T1 sequence (P34972 whole entry): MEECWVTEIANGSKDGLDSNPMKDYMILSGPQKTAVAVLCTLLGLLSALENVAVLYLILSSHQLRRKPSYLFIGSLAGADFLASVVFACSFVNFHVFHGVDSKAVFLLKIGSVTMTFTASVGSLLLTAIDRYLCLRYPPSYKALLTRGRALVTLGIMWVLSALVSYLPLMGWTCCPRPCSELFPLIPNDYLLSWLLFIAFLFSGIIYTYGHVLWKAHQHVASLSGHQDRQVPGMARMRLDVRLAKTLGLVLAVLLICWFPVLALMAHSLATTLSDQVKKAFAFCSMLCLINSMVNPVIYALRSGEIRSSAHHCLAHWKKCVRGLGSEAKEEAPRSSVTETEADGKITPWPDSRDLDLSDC
# Chain of human CB1 (P21554 whole entry): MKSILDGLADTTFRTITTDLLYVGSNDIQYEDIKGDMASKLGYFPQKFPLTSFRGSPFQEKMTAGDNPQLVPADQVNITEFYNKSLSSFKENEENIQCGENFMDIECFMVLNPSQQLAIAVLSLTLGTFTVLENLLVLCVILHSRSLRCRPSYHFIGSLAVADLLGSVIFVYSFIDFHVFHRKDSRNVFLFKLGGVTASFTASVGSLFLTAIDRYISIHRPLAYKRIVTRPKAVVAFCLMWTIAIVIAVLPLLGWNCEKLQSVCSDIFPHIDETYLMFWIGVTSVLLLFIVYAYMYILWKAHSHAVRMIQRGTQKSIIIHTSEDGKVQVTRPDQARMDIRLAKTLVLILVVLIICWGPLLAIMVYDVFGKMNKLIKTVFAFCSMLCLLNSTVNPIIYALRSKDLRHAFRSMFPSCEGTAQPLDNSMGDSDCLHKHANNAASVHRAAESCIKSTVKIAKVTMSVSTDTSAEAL
structure (smiles),measurement,setting,value
"Cn1nnnc1Cn1nnc2c(N3CC[C@H](O)C3)nc(C(C)(C)C)nc21 [RO6868847, (3S)-1-[5-tert-butyl-3-[(1-methyltetrazol-5-yl)methyl]triazolo[4,5-d]pyrimidin-7-yl]pyrrolidin-3-ol]",Ki,[1],> 10 µM
same,CB1/CB2 Ratio (binding selectivity),[1]; CB1 Ki over CB2 Ki,>195 fold
same,affinity for human CB1,[1]; highest concentration of 10 μM,no affinity
same,selectivity for CB2 in panels,[2],high selectivity for CB2 in all the panels
same,selectivity for CB2,[3],excellent selectivity for CB2
same,Fold change vs HPs,[4]; DM,1.8x
same,Emax,"[4]; DM, n = 8",56.2 ± 11.7%
same,Fold change vs HPs,[4]; Healthy Participants,1
same,CB2 surface expression on B-cells,"[4]; Healthy Participants, n = 9",concentration-dependent reduction of CB2 surface expression on B-cells
same,Mean Emax ± SD (%),"[4]; Healthy Participants, n = 9",55.0 ± 4.6 (n = 9) %
same,Emax,"[4]; Healthy Participants, n = 9",55 ± 4.6%
same,Fold change vs HPs,[4]; Matched Healthy,2.6 x
same,Emax,"[4]; Matched Healthy, n = 8",55.7 ± 6.8%
same,IC50,"[4]; Mean IC50 (CB2 on B-cells) ± SD (nM), DM, n = 8, one outlier excluded",172 ± 82 nM
same,IC50,"[4]; Mean IC50 (CB2 on B-cells) ± SD (nM), Healthy Participants, n = 9, 1 hour at 37° C.",96.5 ± 27.1 nM
same,IC50,"[4]; Mean IC50 (CB2 on B-cells) ± SD (nM), Matched Healthy, n = 8",253 ± 206 nM
same,fold higher concentration/exposure required for similar CB2R target engagement,[4]; diabetic and matched (elderly) healthy vs younger healthy participants,2-3 fold and ~3 fold
same,CB2 receptor internalization on the surface of B-cells,[4]; [10],dose-dependent CB2 receptor internalization
same,IC50,"[4]; mean IC50 (TE), Healthy participants, 9 donors, converted",96.5 nM
same,IC50,"[5]; Homo sapiens, DM, 3/9, read-out: IC50 (IL-1β)/μM",29.4 ± 24.1 µM
same,IC50,"[5]; Homo sapiens, DM, 7/9, read-out: IC50 (IFNγ)/μM",6.91 ± 2.29 µM
same,IC50,"[5]; Homo sapiens, HV, 3/8, read-out: IC50 (TNFα)/μM",7 ± 4.61 µM
same,IC50,"[5]; Homo sapiens, HV, 5/8, read-out: IC50 (IL-1β)/μM",5.02 ± 4.58 µM
same,IC50,"[5]; Homo sapiens, HV, 6/8, read-out: IC50 (IFNγ)/μM",10.9 ± 8.9 µM
same,IC50,"[5]; Homo sapiens, Matched HVs, 4/8, read-out: IC50 (IFNγ)/μM",12.4 ± 4.19 µM
same,EC50,"[5]; Homo sapiens, HV, curves fitted 5/8",7.97 ± 6.71 µM
same,G-CSF and TNFα levels post LPS,[5]; [10],an overall drug response in the explored exposure range could not be concluded
same,IFNγ level post LPS,[5]; [10],dose-dependent attenuation of IFNγ
same,chemokine and cytokine levels post LPS stimulation,"[5]; healthy participants n=8, 0-30 μM, LPS 100 ng/ml, 18 h","decrease of IFNγ, IL1β, TNFα and elevation of G-CSF"
same,leukostasis in the eye,[6],inhibition of leukostasis in the eye
same,solubility in aqueous solutions,[7],slightly soluble
same,solubility in organic solvents,[7],moderate to good solubility
same,stability to temperature stress,[8],fairly stable
same,stability to light,[8]; solid state and solution,stable to light
same,time dependence of pharmacokinetics,[9]; in vivo,absence of relevant PK time dependencies; also recorded: no evidence of time-dependent pharmacokinetics
same,time to steady state,[9]; once-daily dosing,approximately after the second day of dosing; also recorded: approximately after the second day of treatment
same,accumulation of Cmax and AUCtau,"[9]; once-daily dosing, independent of dose",only minor accumulation
